Values quoted from earlier work as cited in patent US10894026B2, “Pharmaceutical compositions comprising a fumaric acid ester and method for the preparation thereof” (PHARMATHEN S.A., priority 2016, dated 2021).
Counter-ions that a name gives are not always drawn.

- solubility in methanol (methanol): sparingly soluble
- solubility in water (water): insoluble
SMILES: COC(=O)/C=C/C(=O)OC [Dimethyl fumarate, (E)-2-butenedioic acid dimethyl ester]
